Source: ChEMBL document CHEMBL1955745, “Synthesis and in vitro antitumor activity of asperphenamate derivatives as autophagy inducer” (Bioorg Med Chem Lett, 2012)
In brackets after ≈: the same amount, converted by molar mass. Activity calls are given as the source filed them. No cut-off for these calls is given here.

Experiments:
MCF7 [1] = test: Induction of autophagy in human MCF7 cells assessed as increase in cytoplasmic acidic vesicular organelles at 5 to 10 uM after 72 hrs by AO staining-based fluorescence microscopic analysis; assay type: functional, cell-based
MCF7 [2] = test: Selectivity ratio of IC50 for human […] cells to IC50 for human MCF7 cells; assay type: functional
MCF7 [3] = test: Induction of autophagy in human MCF7 cells assessed as autophagic cells at 10 uM after 72 hrs by MDC staining-based flow cytometry (reference value: 2.14%); assay type: functional
MCF7 [4] = test: Induction of autophagy in human MCF7 cells assessed as autophagic cells at 5 uM after 72 hrs by MDC staining-based flow cytometry (reference value: 2.14%); assay type: functional
MCF7 [5] = test: Cell cycle arrest in human MCF7 cells assessed as accumulation at S phase at 10 uM after 24 hrs by propidium iodide staining-based flow cytometric analysis (reference value: 14.35%); assay type: functional
MCF7 [6] = test: Cell cycle arrest in human MCF7 cells assessed as accumulation at subG1 phase at 10 uM after 72 hrs by propidium iodide staining-based flow cytometric analysis (reference value: 4.11%); assay type: functional
MCF7 [7] = test: Cell cycle arrest in human MCF7 cells assessed as accumulation at G2/M phase at 10 uM after 24 hrs by propidium iodide staining-based flow cytometric analysis (reference value: 20.62%); assay type: functional
MCF7 [8] = test: Ratio of IC50 for cisplatin to compound IC50 for human MCF7 cells after 3 days by MTT assay; assay type: functional
Bel-7402 = test: Antiproliferative activity against human Bel7402 cells after 3 days by MTT assay; assay type: functional, cell-based; settings: Bel-7402, 72 h
HeLa = test: Antiproliferative activity against human HeLa cells after 3 days by MTT assay; assay type: functional, cell-based; settings: 72 h
MCF7 [9] = test: Cell cycle arrest in human MCF7 cells assessed as accumulation at G2/M phase at 10 uM after 48 hrs by propidium iodide staining-based flow cytometric analysis (reference value: 20.62%); assay type: functional
MCF7 [10] = test: Cell cycle arrest in human MCF7 cells assessed as accumulation at G0/G1 phase at 10 uM after 72 hrs by propidium iodide staining-based flow cytometric analysis (reference value: 60.01%); assay type: functional
MCF7 [11] = test: Antiproliferative activity against human MCF7 cells after 3 days by MTT assay; assay type: functional, cell-based; settings: MCF7, 72 h
MCF7 [12] = test: Induction of autophagy in human MCF7 cells assessed as decrease in LC3-1 level at 5 to 10 uM after 48 hrs by Western blot analysis; assay type: functional, cell-based
MCF7 [13] = test: Cell cycle arrest in human MCF7 cells assessed as accumulation at G2/M phase at 10 uM after 72 hrs by propidium iodide staining-based flow cytometric analysis (reference value: 20.62%); assay type: functional
MCF7 [14] = test: Cell cycle arrest in human MCF7 cells assessed as accumulation at subG1 phase at 10 uM after 48 hrs by propidium iodide staining-based flow cytometric analysis (reference value: 4.11%); assay type: functional
MCF7 [15] = test: Selectivity ratio of IC50 for human HeLa cells to IC50 for human MCF7 cells; assay type: functional
MCF7 [16] = test: Induction of autophagy in human MCF7 cells assessed as increase in cytoplasmic acidic vesicular organelles at 5 to 10 uM after 72 hrs by MDC staining-based fluorescence microscopic analysis; assay type: functional, cell-based
MCF7 [17] = test: Induction of autophagy in human MCF7 cells assessed as increase in […] level at 5 to 10 uM after 48 hrs by Western blot analysis; assay type: functional, cell-based
[18] = Thermodynamic solubility of the compound in phosphate buffer at pH 7.4 at 1 mg after 10 mins by HPLC -UV analysis; assay type: physicochemical; settings: read-out: Therm_solubility
MCF7 [19] = test: Cell cycle arrest in human MCF7 cells assessed as accumulation at G0/G1 phase at 10 uM after 48 hrs by propidium iodide staining-based flow cytometric analysis (reference value: 60.01%); assay type: functional
MCF7 [20] = test: Cell cycle arrest in human MCF7 cells assessed as accumulation at G0/G1 phase at 10 uM after 24 hrs by propidium iodide staining-based flow cytometric analysis (reference value: 60.01%); assay type: functional
MCF7 [21] = test: Cell cycle arrest in human MCF7 cells assessed as accumulation at S phase at 10 uM after 48 hrs by propidium iodide staining-based flow cytometric analysis (reference value: 14.35%); assay type: functional
MCF7 [22] = test: Cell cycle arrest in human MCF7 cells assessed as accumulation at S phase at 10 uM after 72 hrs by propidium iodide staining-based flow cytometric analysis (reference value: 14.35%); assay type: functional
MCF7 [23] = test: Cell cycle arrest in human MCF7 cells assessed as accumulation at subG1 phase at 10 uM after 24 hrs by propidium iodide staining-based flow cytometric analysis (reference value: 4.11%); assay type: functional

IC50 (Bel-7402): 32.6 µM
IC50 (HeLa): 27 µM
IC50 (MCF7 [11]): 6.06 µM
solubility thermodynamic at 10 min [18]: 223 µg/mL (≈ 356 µM)
Structure (SMILES): O=C(Cc1ccccc1OCc1ccccc1)N[C@H](Cc1ccccc1)C(=O)OC[C@@H](Cc1ccccc1)NC(=O)c1ccccc1
Activity (MCF7 [1]): Active
Ratio IC50 (MCF7 [2]): 5
Activity (MCF7 [3]): 52.62%
Activity (MCF7 [4]): 15.62%
Activity (MCF7 [5]): 15.98%
Activity (MCF7 [6]): 2.83%
Activity (MCF7 [7]): 21.65%
Ratio IC50 (MCF7 [8]): 1.5
Activity (MCF7 [9]): 17.07%
Activity (MCF7 [10]): 57.08%
Activity (MCF7 [12]): Active
Activity (MCF7 [13]): 20.38%
Activity (MCF7 [14]): 3.16%
Ratio IC50 (MCF7 [15]): 5
Activity (MCF7 [16]): Active
Activity (MCF7 [17]): Active
Activity (MCF7 [19]): 59.4%
Activity (MCF7 [20]): 59.85%
Activity (MCF7 [21]): 17.85%
Activity (MCF7 [22]): 16.69%
Activity (MCF7 [23]): 1.76%
